Article PMC12935787, “Clinical pharmacokinetics and pharmacometabolomics of Andrographis paniculata capsules: Bridging drug disposition and metabolic response to precision medicine” (Naunyn-Schmiedeberg's Archives of Pharmacology, 2025)
Like-named read-outs stand apart in the source and are kept apart here.

Key:
[1] = Clinical pharmacokinetics, plasma LC-MS/MS after single oral dose of AP capsules; format: in vivo, human (healthy volunteers); details: human, plasma; for concentration at 0 h / concentration at 0.5 h / concentration at 1 h / concentration at 1.5 h / concentration at 2 h / concentration at 2.5 h / concentration at 3 h / concentration at 3.5 h / concentration at 4 h / concentration at 5 h / concentration at 6 h / concentration at 8 h / concentration at 10 h / concentration at 12 h / concentration at 24 h: oral, 2000 mg, 2000 mg AP capsules; for concentration at 0.5 h: 0.50 h; for concentration at 1.5 h: 1.50 h; for concentration at 2.5 h: 2.50 h; for concentration at 3.5 h: 3.50 h
Experimental: The protocol was published (Tee et al. [2022]).
Seven calibrators ranging from 1, 2, 5,10, 20, 50, and 100 ng mL^−1 were prepared. Frozen plasma was thawed, vortexed-mixes, and processed via protein precipitation: 50 µL plasma plus 100 µL 0.01% ammonia in methanol were vortexed (20 s), centrifuged (14800 rpm, 5 min) and […] supernatant was transferred to 2 mL vials with inserts. LC–MS/MS injection volume: 10 µL. The separation used a Phenomenex Gemini-NX C18 column (150 × 2.1 mm, 5 μm) with 0.01% ammonia (A) and acetonitrile/methanol (1:1, B) as mobile phases (0.30 mL min^-1). The gradient program: 40% B (0 min), linear increase to 95% B (3 min), hold to 5 min, sharp decrease to 10% B (5.01 min), hold to 7 min, return to 40% B (7.01 min), and re-equilibration to 10 min. Mass detection employed an LCMS-8060NX triple quadrupole with heated ESI in negative mode, monitoring specific MRM transitions: andrographolide (349.3 → 331.2/287.1), 14-deoxyandrographolide (331.2 → 108.0/301.1), and neoandrographolide (479.1 → 317.4/161.1).
Pharmacokinetic parameters were determined from plasma samples (5 subjects, 15 time points) analyzed via LC–MS/MS (Shimadzu 8060NX). […] Specific MRM transitions for andrographolide, 14-deoxyandrographolide, and neoandrographolide in plasma samples of subjects are illustrated in Figure S3. […] The dose-dependent concentration–time curves, pharmacokinetics profiles (Fig. 2a, b and c) and comprehensive individual PK data (Table S4) provide a foundation for developing personalized AP dosing regimens, supporting its precision medicine potential.

[2] = design: method as in Songvut et al. [2023b]; details: AP dose corresponding to 60 mg of andrographolide; ref Songvut et al. [2023b]; cited from earlier work
[3] = S1, read-out: Plasma concentration
[4] = S2, read-out: Plasma concentration
[5] = S3, read-out: Plasma concentration
[6] = S4, read-out: Plasma concentration
[7] = S5, read-out: Plasma concentration
[8] = mean n=5, read-out: Mean concentration
[9] = 2000 mg AP capsules oral, fasting, n=5

C=C1CC[C@@H]2[C@](C)(CO)[C@H](O)CC[C@@]2(C)[C@@H]1CCC1=CCOC1=O [14-deoxyandrographolide]
concentration at 0 h [1, 3]: 0 ng/mL
concentration at 0.5 h [1, 3]: 4.67 ng/mL
concentration at 1 h [1, 3]: 2.88 ng/mL
concentration at 1.5 h [1, 3]: 7.71 ng/mL
concentration at 2 h [1, 3]: 5.18 ng/mL
concentration at 2.5 h [1, 3]: 3.32 ng/mL
concentration at 3 h [1, 3]: 6.06 ng/mL
concentration at 3.5 h [1, 3]: 3.78 ng/mL
concentration at 4 h [1, 3]: 0 ng/mL
concentration at 5 h [1, 3]: 0 ng/mL
concentration at 6 h [1, 3]: 0 ng/mL
concentration at 8 h [1, 3]: 0 ng/mL
concentration at 10 h [1, 3]: 0 ng/mL
concentration at 12 h [1, 3]: 0 ng/mL
concentration at 24 h [1, 3]: 0 ng/mL
concentration at 0 h [1, 4]: 0 ng/mL
concentration at 0.5 h [1, 4]: 0 ng/mL
concentration at 1 h [1, 4]: 4.36 ng/mL
concentration at 1.5 h [1, 4]: 4.51 ng/mL
concentration at 2 h [1, 4]: 3.4 ng/mL
concentration at 2.5 h [1, 4]: 2.73 ng/mL
concentration at 3 h [1, 4]: 4.33 ng/mL
concentration at 3.5 h [1, 4]: 0 ng/mL
concentration at 4 h [1, 4]: 0 ng/mL
concentration at 5 h [1, 4]: 0 ng/mL
concentration at 6 h [1, 4]: 0 ng/mL
concentration at 8 h [1, 4]: 0 ng/mL
concentration at 10 h [1, 4]: 0 ng/mL
concentration at 12 h [1, 4]: 0 ng/mL
concentration at 24 h [1, 4]: 0 ng/mL
concentration at 0 h [1, 5]: 0 ng/mL
concentration at 0.5 h [1, 5]: 23.4 ng/mL
concentration at 1 h [1, 5]: 10.1 ng/mL
concentration at 1.5 h [1, 5]: 6.33 ng/mL
concentration at 2 h [1, 5]: 3.06 ng/mL
concentration at 2.5 h [1, 5]: 2.52 ng/mL
concentration at 3 h [1, 5]: 1.77 ng/mL
concentration at 3.5 h [1, 5]: 0 ng/mL
concentration at 4 h [1, 5]: 0 ng/mL
concentration at 5 h [1, 5]: 2.59 ng/mL
concentration at 6 h [1, 5]: 0 ng/mL
concentration at 8 h [1, 5]: 0 ng/mL
concentration at 10 h [1, 5]: 0 ng/mL
concentration at 12 h [1, 5]: 0 ng/mL
concentration at 24 h [1, 5]: 0 ng/mL
concentration at 0 h [1, 6]: 0 ng/mL
concentration at 0.5 h [1, 6]: 1.49 ng/mL
concentration at 1 h [1, 6]: 10 ng/mL
concentration at 1.5 h [1, 6]: 13.2 ng/mL
concentration at 2 h [1, 6]: 4.7 ng/mL
concentration at 2.5 h [1, 6]: 5.46 ng/mL
concentration at 3 h [1, 6]: 1.92 ng/mL
concentration at 3.5 h [1, 6]: 2.29 ng/mL
concentration at 4 h [1, 6]: 1.69 ng/mL
concentration at 5 h [1, 6]: 1.8 ng/mL
concentration at 6 h [1, 6]: 2.01 ng/mL
concentration at 8 h [1, 6]: 2.47 ng/mL
concentration at 10 h [1, 6]: 0 ng/mL
concentration at 12 h [1, 6]: 0 ng/mL
concentration at 24 h [1, 6]: 0 ng/mL
concentration at 0 h [1, 7]: 0 ng/mL
concentration at 0.5 h [1, 7]: 3.04 ng/mL
concentration at 1 h [1, 7]: 2.29 ng/mL
concentration at 1.5 h [1, 7]: 3.39 ng/mL
concentration at 2 h [1, 7]: 4.99 ng/mL
concentration at 2.5 h [1, 7]: 3.66 ng/mL
concentration at 3 h [1, 7]: 3.28 ng/mL
concentration at 3.5 h [1, 7]: 2.09 ng/mL
concentration at 4 h [1, 7]: 1.36 ng/mL
concentration at 5 h [1, 7]: 2.4 ng/mL
concentration at 6 h [1, 7]: 1.7 ng/mL
concentration at 8 h [1, 7]: 0 ng/mL
concentration at 10 h [1, 7]: 0 ng/mL
concentration at 12 h [1, 7]: 0 ng/mL
concentration at 24 h [1, 7]: 0 ng/mL
concentration at 0 h [1, 8]: 0 ng/mL
concentration at 0.5 h [1, 8]: 6.52 ng/mL
concentration at 1 h [1, 8]: 5.94 ng/mL
concentration at 1.5 h [1, 8]: 7.02 ng/mL
concentration at 2 h [1, 8]: 4.27 ng/mL
concentration at 2.5 h [1, 8]: 3.54 ng/mL
concentration at 3 h [1, 8]: 3.47 ng/mL
concentration at 3.5 h [1, 8]: 1.63 ng/mL
concentration at 4 h [1, 8]: 0.61 ng/mL
concentration at 5 h [1, 8]: 1.36 ng/mL
concentration at 6 h [1, 8]: 0.74 ng/mL
concentration at 8 h [1, 8]: 0.49 ng/mL
concentration at 10 h [1, 8]: 0 ng/mL
concentration at 12 h [1, 8]: 0 ng/mL
concentration at 24 h [1, 8]: 0 ng/mL
AUC(0-inf) [1, 9]: 21.2 ng·h/mL
AUC(0-t) [1, 9]: 19.6 ng·h/mL
Cmax [1, 9]: 7.02 ng/mL
half-life [1, 9]: 2.18 h
Cmax, previously reported [2]: 4.2 ± 3.4 ng/mL
Tmax, previously reported [2]: 1.0 h
